{
  "source": "paper PMC8110907",
  "about": "“Arabidopsis Carboxylesterase 20 Binds Strigolactone and Increases Branches and Tillers When Ectopically Expressed in Arabidopsis and Maize” (Frontiers in Plant Science, 2021)",
  "molecules": {"B1": {"name": "AtCXE20 (carboxylesterase 20) (Arabidopsis thaliana) (protein)", "chain": "MSEPSPIADPYAYLNIVNNPDGSITRDLSNFPCTAATPDPSPLNPAVSKDLPVNQLKSTWLRLYLPSSAVNEGNVSSQKLPIVVYYHGGGFILCSVDMQLFHDFCSEVARDLNAIVVSPSYRLAPEHRLPAAYDDGVEALDWIKTSDDEWIKSHADFSNVFLMGTSAGGNLAYNVGLRSVDSVSDLSPLQIRGLILHHPFFGGEERSESEIRLMNDQVCPPIVTDVMWDLSLPVGVDRDHEYSNPTVGDGSEKLEKIGRLRWKVMMIGGEDDPMIDLQKDVAKLMKKKGVEVVEHYTGGHVHGAEIRDPSKRKTLFLSIKNFIFSVL", "notes": "recombinant AtCXE20 with 20-amino acid N-terminal peptide fusion including a 6-histidine tag, expressed in E. coli"}},
  "key": {"[1]": {"target": "T1, AtCXE20 (carboxylesterase 20) (Arabidopsis thaliana, UniProt Q9LVB8)", "T1 construct": "gene CXE20; recombinant AtCXE20 with 20-amino acid N-terminal peptide fusion including a 6-histidine tag, expressed in E. coli", "T1 sequence (Q9LVB8 1-327)": "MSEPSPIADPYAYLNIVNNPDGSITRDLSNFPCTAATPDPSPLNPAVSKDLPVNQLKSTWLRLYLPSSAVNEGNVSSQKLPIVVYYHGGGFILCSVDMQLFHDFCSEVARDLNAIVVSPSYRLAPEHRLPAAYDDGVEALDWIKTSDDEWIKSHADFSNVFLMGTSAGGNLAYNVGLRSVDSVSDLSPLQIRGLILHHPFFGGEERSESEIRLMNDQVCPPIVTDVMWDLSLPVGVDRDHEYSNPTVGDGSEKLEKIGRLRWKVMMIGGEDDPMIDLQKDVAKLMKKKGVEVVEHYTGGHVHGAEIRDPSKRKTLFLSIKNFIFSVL", "test": "esterase inhibition at […] (p-nitrophenyl acetate substrate); also decreased intrinsic fluorescence at […]", "type": "biochemical"}, "[2]": {"target": "T1, AtCXE20 (carboxylesterase 20)", "test": "esterase assay with p-nitrophenyl acetate, Michaelis-Menten kinetics", "type": "biochemical"}, "purified protein": {"substrate": "CC(=O)Oc1ccc([N+](=O)[O-])cc1", "test": "purified protein", "type": "biochemical, Arabidopsis thaliana", "settings": "catalytic triad S166, H302, D272 (homology model)"}},
  "data": [
    {"molecule": "CC1=CC(O/C=C2/C(=O)OC3c4ccccc4CC23)OC1=O", "note": "(racemic) [GR24, rac-GR24]", "values": [
      {"measurement": "esterase inhibition at 20 μM (p-nitrophenyl acetate substrate); also decreased i", "setting": "[1]", "value": "substantial inhibition was observed with the synthetic SL racemic mixture GR24"}
    ]},
    {"molecule": "CC1=C[C@H](O/C=C2/C(=O)O[C@@H]3C4=C(CCCC4(C)C)C[C@H]23)OC1=O", "note": "[5-DS, 5-deoxystrigol]", "values": [
      {"measurement": "Ki", "setting": "[2]", "value": 5, "unit": "µM"}
    ]},
    {"molecule": "B1", "values": [
      {"measurement": "Km", "setting": "purified protein", "value": "251 ± 26", "unit": "µM"}
    ]}
  ]
}
